Source: patent US8722849B2, “Polypeptides” (Novo Nordisk A/S, priority 2011, dated 2014)
Converted amounts (≈) assume the structure as drawn. Where two headings read alike, the source gives them in different places. Starred links: 1 amine or outer side, 2 acyl side, 3 side chain; linkers in the order of their positions; H or OH if unused. Positions of bridges follow the written chain, without caps; N, C: chain ends. Residues, ends and D or L forms follow the SMILES beside them. Groups on a side chain read outwards from the residue. *: point of attachment. C20 diacid = O=C(O)CCCCCCCCCCCCCCCCCCC(=O)*; γGlu = O=C(O)[C@H](CCC(=O)[*:2])N[*:1]; AEEA = NCCOCCOCC(=O)O

Experiment: Assay (IV) determination of solubility
Format: physicochemical
Procedure, shortened: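 Eight 100 mM buffers (glycylglycine pH 3.0–5.0, bistrispropane pH 6.0–8.0) each received an equal volume of polypeptide dissolved in water at ~500 nmol/ml. Soluble polypeptide was measured by HPLC following 18 hours at room temperature and centrifugation.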

[1] = pH 3, pH 3.0, read-out: Solubility pH 3.0
[2] = pH 4, pH 4.0, 18 hours at room temperature, Table 2, read-out: Solubility pH 4.0
[3] = pH 4, pH 4.0, read-out: Solubility pH 4.0
[4] = pH 5, pH 5.0, read-out: Solubility pH 5.0
[5] = pH 6, pH 6.0, read-out: Solubility pH 6.0
[6] = pH 6.5, pH 6.5, read-out: Solubility pH 6.5
[7] = pH 7, pH 7.0, 18 hours at room temperature, Table 3, read-out: Solubility pH 7.0
[8] = pH 7, pH 7.0, read-out: Solubility pH 7.0
[9] = pH 7.5, pH 7.5, read-out: Solubility pH 7.5
[10] = pH 8, pH 8.0, read-out: Solubility pH 8.0

CC[C@H](C)[C@H](NC(=O)[C@@H]1CCCN1C(=O)CNC(=O)[C@H](Cc1ccccc1)NC(=O)[C@H](CC(N)=O)NC(=O)[C@H](CCCCNC(=O)COCCOCCNC(=O)COCCOCCNC(=O)CC[C@H](NC(=O)CCCCCCCCCCCCCCCCCCC(=O)O)C(=O)O)NC(=O)[C@H](CO)NC(=O)[C@H](CO)NC(=O)[C@H](CCCNC(=N)N)NC(=O)[C@@H](NC(=O)[C@H](CC(C)C)NC(=O)[C@H](Cc1ccccc1)NC(=O)[C@H](CCC(=O)O)NC(=O)[C@H](C)NC(=O)[C@H](CC(C)C)NC(=O)[C@H](CCCNC(=N)N)NC(=O)[C@H](CCC(N)=O)NC(=O)[C@@H](NC(=O)[C@H](C)NC(=O)[C@@H]1CSSC[C@H](NC(=O)[C@@H](N)CCCCN)C(=O)N[C@@H](CC(N)=O)C(=O)N[C@@H]([C@@H](C)O)C(=O)N[C@@H](C)C(=O)N[C@@H]([C@@H](C)O)C(=O)N1)[C@@H](C)O)C(C)C)C(=O)N[C@@H](CC(C)C)C(=O)N[C@@H](CO)C(=O)N[C@@H](CCCNC(=N)N)C(=O)N[C@H](C(=O)N[C@@H](CC(N)=O)C(=O)N[C@H](C(=O)NCC(=O)N[C@@H](CO)C(=O)N[C@@H](CCCNC(=N)N)C(=O)N[C@H](C(=O)N[C@@H](Cc1ccc(O)cc1)C(N)=O)[C@@H](C)O)C(C)C)[C@@H](C)O [Example 150, N-epsilon21-[2-(2-{2-[2-(2-{2-[(S)-4-Carboxy-4-(19-carboxyheptadecanoylamino)butyrylamino]ethoxy}ethoxy)acetylamino]ethoxy}ethoxy)acetyl]-[Glu14,Arg18,Lys21,Ser28,Arg29,Arg35]-pramlintide] (H-KCNTATCATQRLAEFLVRSSK([AEEA-AEEA-γGlu-C20 diacid])NFGPILSRTNVGSRTY-NH2; disulfide 2-7)
solubility [1]: > 200 µM
solubility [2]: > 200 µM
solubility [3]: > 200 µM
solubility [4]: > 200 µM
solubility [5]: > 200 µM
solubility [6]: 163 µM (≈ 788 µg/mL)
solubility [7]: > 200 µM
solubility (pH 7, pH 7.0, Table 8, read-out: Solubility pH 7.0): > 200 µM
solubility (pH 7, pH 7.0, Table 9, read-out: Solubility pH 7.0): > 200 µM
solubility [8]: > 200 µM
solubility (pH 7.5, pH 7.5, Table 9, read-out: Solubility pH 7.5): > 200 µM
solubility [9]: > 200 µM
solubility [10]: > 200 µM

CC[C@H](C)[C@H](NC(=O)[C@@H]1CCCN1C(=O)CNC(=O)[C@H](Cc1ccccc1)NC(=O)[C@H](CC(N)=O)NC(=O)[C@H](CCC(N)=O)NC(=O)[C@H](CO)NC(=O)[C@H](CO)NC(=O)[C@H](Cc1c[nH]cn1)NC(=O)[C@H](CCCNC(=N)N)NC(=O)[C@H](CC(C)C)NC(=O)[C@H](Cc1ccccc1)NC(=O)[C@H](CCC(=O)O)NC(=O)[C@H](C)NC(=O)[C@H](CC(C)C)NC(=O)[C@H](CCCNC(=N)N)NC(=O)[C@H](CCC(N)=O)NC(=O)[C@@H](NC(=O)[C@H](C)NC(=O)[C@@H]1CSSC[C@H](NC(=O)[C@H](CCCNC(=N)N)NC(=O)[C@H](CCC(=O)O)NC(=O)[C@H](CCC(=O)O)NC(=O)CC[C@H](NC(=O)CCCCCCCCCCCCCCCCCCC(=O)O)C(=O)O)C(=O)N[C@@H](CC(N)=O)C(=O)N[C@@H]([C@@H](C)O)C(=O)N[C@@H](C)C(=O)N[C@@H]([C@@H](C)O)C(=O)N1)[C@@H](C)O)C(=O)N[C@@H](CC(C)C)C(=O)N1CCC[C@H]1C(=O)N1CCC[C@H]1C(=O)N[C@H](C(=O)N[C@@H](CCC(N)=O)C(=O)N[C@H](C(=O)NCC(=O)N[C@@H](CO)C(=O)N[C@@H](CCC(N)=O)C(=O)N[C@H](C(=O)N1CCC[C@H]1C(N)=O)[C@@H](C)O)C(C)C)[C@@H](C)O [Example 159, N-alpha-[(S)-4-Carboxy-4-(19-carboxynonadecanoylamino)butyryl]-Glu-Glu-[Arg1,Glu14,Arg17,Gln21,Gln31,Gln35,Pro37]-pramlintide] ({C20 diacid-γGlu}-EERCNTATCATQRLAEFLRHSSQNFGPILPPTQVGSQTP-NH2; disulfide 4-9)
solubility [1]: > 200 µM
solubility [2]: > 200 µM
solubility [3]: > 200 µM
solubility [4]: > 200 µM
solubility [5]: > 200 µM
solubility [6]: > 200 µM
solubility [7]: > 200 µM
solubility [8]: > 200 µM
solubility [9]: > 200 µM
solubility [10]: > 200 µM

CC[C@H](C)[C@H](NC(=O)[C@@H]1CCCN1C(=O)CNC(=O)[C@H](Cc1ccccc1)NC(=O)[C@H](CCC(N)=O)NC(=O)[C@H](CCC(N)=O)NC(=O)[C@H](CO)NC(=O)[C@H](CO)NC(=O)[C@H](Cc1c[nH]cn1)NC(=O)[C@H](CCCNC(=N)N)NC(=O)[C@H](CC(C)C)NC(=O)[C@H](Cc1ccccc1)NC(=O)[C@H](CCC(=O)O)NC(=O)[C@H](C)NC(=O)[C@H](CC(C)C)NC(=O)[C@H](CCCNC(=N)N)NC(=O)[C@H](CCC(N)=O)NC(=O)[C@@H](NC(=O)[C@H](C)NC(=O)[C@@H]1CSSC[C@H](NC(=O)[C@H](CCCNC(=N)N)NC(=O)[C@H](CCC(=O)O)NC(=O)[C@H](CCC(=O)O)NC(=O)CC[C@H](NC(=O)CCCCCCCCCCCCCCCCCCC(=O)O)C(=O)O)C(=O)N[C@@H](CC(N)=O)C(=O)N[C@@H]([C@@H](C)O)C(=O)N[C@@H](C)C(=O)N[C@@H]([C@@H](C)O)C(=O)N1)[C@@H](C)O)C(=O)N[C@@H](CC(C)C)C(=O)N1CCC[C@H]1C(=O)N1CCC[C@H]1C(=O)N[C@H](C(=O)N[C@@H](CCC(N)=O)C(=O)N[C@H](C(=O)NCC(=O)N[C@@H](CO)C(=O)N[C@@H](CCC(N)=O)C(=O)N[C@H](C(=O)N1CCC[C@H]1C(N)=O)[C@@H](C)O)C(C)C)[C@@H](C)O [Example 160, N-alpha-[(S)-4-Carboxy-4-(19-carboxynonadecanoylamino)butyryl]-Glu-Glu-[Arg1,Glu14,Arg17,Gln21,Gln22,Gln31,Gln35,Pro37]-pramlintide] ({C20 diacid-γGlu}-EERCNTATCATQRLAEFLRHSSQQFGPILPPTQVGSQTP-NH2; disulfide 4-9)
solubility [1]: > 200 µM
solubility [2]: > 200 µM
solubility [3]: > 200 µM
solubility [4]: > 200 µM
solubility [5]: > 200 µM
solubility [6]: > 200 µM
solubility [7]: > 200 µM
solubility [8]: > 200 µM
solubility [9]: > 200 µM
solubility [10]: > 200 µM

CC[C@H](C)[C@H](NC(=O)[C@@H]1CCCN1C(=O)CNC(=O)[C@H](Cc1ccccc1)NC(=O)[C@H](CC(N)=O)NC(=O)[C@H](C)NC(=O)[C@H](CO)NC(=O)[C@H](CO)NC(=O)[C@H](Cc1c[nH]cn1)NC(=O)[C@H](Cc1c[nH]cn1)NC(=O)[C@H](CC(C)C)NC(=O)[C@H](Cc1ccccc1)NC(=O)[C@H](CCC(=O)O)NC(=O)[C@H](C)NC(=O)[C@H](CC(C)C)NC(=O)[C@H](CCCNC(=N)N)NC(=O)[C@H](CCC(N)=O)NC(=O)[C@@H](NC(=O)[C@H](C)NC(=O)[C@@H]1CSSC[C@H](NC(=O)[C@H](CCCCN)NC(=O)COCCOCCNC(=O)COCCOCCNC(=O)CC[C@H](NC(=O)CCCCCCCCCCCCCCCCCCC(=O)O)C(=O)O)C(=O)N[C@@H](CC(N)=O)C(=O)N[C@@H]([C@@H](C)O)C(=O)N[C@@H](C)C(=O)N[C@@H]([C@@H](C)O)C(=O)N1)[C@@H](C)O)C(=O)N[C@@H](CC(C)C)C(=O)N1CCC[C@H]1C(=O)N1CCC[C@H]1C(=O)N[C@H](C(=O)N[C@@H](CC(N)=O)C(=O)N[C@H](C(=O)NCC(=O)N[C@@H](CO)C(=O)N[C@@H](CC(N)=O)C(=O)N[C@H](C(=O)N1CCC[C@H]1C(N)=O)[C@@H](C)O)C(C)C)[C@@H](C)O [Example 169, N-alpha-[2-(2-{2-[2-(2-{2-[(S)-4-Carboxy-4-(19-carboxyheptadecanoylamino)butyrylamino]ethoxy}ethoxy)acetylamino]ethoxy}ethoxy)acetyl]-[Glu14,His17,Ala21,Pro37]-pramlintide] ({C20 diacid-γGlu-AEEA-AEEA}-KCNTATCATQRLAEFLHHSSANFGPILPPTNVGSNTP-NH2; disulfide 2-7)
solubility [1]: > 200 µM
solubility [2]: > 200 µM
solubility [3]: > 200 µM
solubility [4]: > 200 µM
solubility [5]: > 200 µM
solubility [6]: > 200 µM
solubility [7]: > 200 µM
solubility [8]: > 200 µM
solubility [9]: > 200 µM
solubility [10]: > 200 µM

CC(C)C[C@H](NC(=O)[C@H](CCCNC(=N)N)NC(=O)[C@H](CCC(N)=O)NC(=O)[C@@H](NC(=O)[C@H](C)NC(=O)[C@@H]1CSSC[C@H](NC(=O)[C@H](CCCCN)NC(=O)CC[C@H](NC(=O)CCCCCCCCCCCCCCCCCCC(=O)O)C(=O)O)C(=O)N[C@@H](CC(N)=O)C(=O)N[C@@H]([C@@H](C)O)C(=O)N[C@@H](C)C(=O)N[C@@H]([C@@H](C)O)C(=O)N1)[C@@H](C)O)C(=O)N[C@@H](C)C(=O)N[C@@H](CCC(=O)O)C(=O)N[C@@H](Cc1ccccc1)C(=O)N[C@@H](CC(C)C)C(=O)N[C@H](C(=O)N[C@@H](Cc1c[nH]cn1)C(=O)N[C@@H](CO)C(=O)N[C@@H](CO)C(=O)N[C@@H](CO)C(=O)N[C@@H](CO)C(=O)N1CCC[C@H]1C(=O)NCC(=O)N[C@@H](C)C(=O)N1CCC[C@H]1C(=O)N[C@@H](CC(C)C)C(=O)N[C@@H](CO)C(=O)N[C@@H](CO)C(=O)N[C@H](C(=O)N[C@@H](CC(=O)O)C(=O)N[C@H](C(=O)NCC(=O)N[C@@H](CO)C(=O)N[C@@H](CC(=O)O)C(=O)N[C@H](C(=O)N1CCC[C@H]1C(N)=O)[C@@H](C)O)C(C)C)[C@@H](C)O)C(C)C [Example 171, N-alpha-[(S)-4-Carboxy-4-(19-carboxynonadecanoylamino)butyryl]-[Glu14,Ser21,Ser22,Pro23,Ala25,Pro26,Ser28,Ser29,Asp31,Asp35,Pro37]-pramlintide] ({C20 diacid-γGlu}-KCNTATCATQRLAEFLVHSSSSPGAPLSSTDVGSDTP-NH2; disulfide 2-7)
solubility [1]: > 200 µM
solubility [2]: > 200 µM
solubility [3]: > 200 µM
solubility [4]: > 200 µM
solubility [5]: > 200 µM
solubility [6]: > 200 µM
solubility [7]: > 200 µM
solubility [8]: > 200 µM
solubility [9]: > 200 µM
solubility [10]: > 200 µM
